For assay [1], the system named is differentiated U937 cells. Description: LPS-induced TNF-α secretion by differentiated U937 cells. Type of assay: cell-based, human. Particulars: LPS 10 ng/ml, 6 h, liposomes; LPS without phospholipid = 100%. The protocol:
(§1) FIG. 1. Anionic phospholipids inhibit inflammatory mediator production induced by LPS. Liposomes composed of sphingomyelin (SM), phosphatidylethanolamine (PE) dipalmitoyl-phosphatidylcholine ((DPPC), phosphatidylserine (PS), palmitoyl-oleoyl-phosphatidylglycerol (POPG) and phosphatidylinositol (PI) were formed by bath-sonication for 30 min at room temperature. LPS (10 ng/ml) and different concentrations of phospholipids were added to monolayer cultures of differentiated U937 cells (A), or primary rat alveolar macrophages (B). At 6 h after stimulation, media were collected and secreted TNF-α levels were determined in U937 cultures. NO production was determined 24 h after stimulating rat alveolar macrophages. LPS stimulation in the absence of phospholipid was set as 100%. […] The average TNF-α production upon LPS stimulation was (8.0±0.54 ng/ml). The average NO production upon LPS stimulation was 12.17±0.27 μM.
(§2) FIG. 2. The inhibitory effect of phosphatidylglycerols on LPS-induced inflammatory mediator production is molecular species specific. PG liposomes were formed by bath-sonication for 30 min at room temperature. LPS (10 ng/ml) and different concentrations of PG were added to monolayer cultures of differentiated U937 cells (A) or rat alveolar macrophages (B). Media TNF-α measurements were performed 6 h after stimulation. Media NO measurements were performed 24 h after stimulation. LPS stimulation without PG was set at 100%. The molecular species of PG shown on the graph are 8:0; dioctanoyl-phosphatidylglycerol, 12:0; dilauroyl-phosphatidylglycerol (DLPG), 14:0; dimyristoyl-phosphatidylglycerol (DMPG), 16:0; dipalmitoyl-phosphatidylglycerol (DPPG), 18:0; distearoyl-phosphatidylglycerol, 16:0/18:1; palmitoyl-oleoyl-phosphatidylglycerol (POPG). […] The average TNF-α production upon LPS stimulation was 11.3±0.7 ng/ml. The average NO production upon LPS stimulation was 10.1±0.6 μM.
FIG. 3. […] Surfactant lipid (SL) and POPG were dried under nitrogen, and hydrated at 37° C. for 1 h. (A) SL and POPG were mixed in organic solvents prior to drying and hydrating and subsequently liposomes were produced. (B) SL and POPG were made as independent populations of liposomes that were subsequently mixed prior to macrophage treatment. 10 ng/ml of LPS and different concentrations of liposome mixtures were added to monolayer cultures of differentiated U937 cells. 6 h after stimulation, media were collected and TNF-α production was determined. LPS stimulation without phospholipid was set as 100%. […] The average TNF-α production upon LPS stimulation was 7.0±0.2 ng/ml.
U937 cells were induced to differentiate by treatment with 10 nM phorbol myristate acetate (PMA) for 48 h. The cells (1.3×10^5/well) were placed in 96-well plates and further incubated in the absence of PMA for 24 h in RPMI 1640 medium containing 10% BGS. Rat alveolar macrophages (5×10^5/well) were incubated in 24-well plates for 2 h after isolation. The indicated concentration of phospholipids was added to the cultures 30 min before adding LPS. After LPS addition cultures were incubated for 6 h at 37° C. at an atmosphere of 95% air and 5% CO2. At the end of the incubation period the medium was collected and assayed for TNF-α concentrations using an ELISA kit.
Surfactant lipids were isolated from the bronchioalveolar lavage of Sprague-Dawley rats, 28 days after intratracheal instillation of 25 mg of silica (˜125 mg/kg). Initially, the surfactant was purified by the method of Hawgood et. al. (25) using NaBr density gradient centrifugation. The purified surfactant was extracted with butanol (26) and segregated into butanol-soluble and -insoluble material.

Assay [2] relates to primary rat alveolar macrophages. Description: LPS-induced NO production by rat alveolar macrophages. Type of assay: cell-based. Conditions: LPS 10 ng/ml, 24 h, liposomes; LPS without phospholipid = 100%. How it is done: as §1, §2
Rat alveolar macrophages were isolated from bronchoalveolar lavage fluid (BALF) of Sprague-Dawley rats. The lungs were lavaged with pyrogen-free saline, and alveolar macrophages were sedimented by centrifugation at 150×g×5 min. Isolated macrophages were plated at 5×10^5 cells/well in 24-well plates (Falcon) in RPMI 1640 medium containing 10% BGS. The cells were allowed to adhere for 2 h and then used for the experiments after washing with phosphate-buffered-saline (PBS) to remove the unattached cells.
Nitric oxide (NO) accumulation in the supernatant was determined as previously reported (28). Briefly, rat alveolar macrophages were stimulated with LPS (10 ng/ml) or LPS plus phospholipids for 24 h. Culture supernatants (usually […]) were combined with an equal volume of Greiss reagent, and the samples were incubated at room temperature for 10 min before the absorbance was quantified at 550 nm. With the use of a standard curve, the nmol of NO produced were determined and normalized to total cell number in each sample.

The target of assay [3] is T1, MD-2 (Homo sapiens, UniProt Q9Y6Y9).
T1 construct: made in house; host or cells: baculovirus-insect cell expression system
T1 sequence (Q9Y6Y9 19-160): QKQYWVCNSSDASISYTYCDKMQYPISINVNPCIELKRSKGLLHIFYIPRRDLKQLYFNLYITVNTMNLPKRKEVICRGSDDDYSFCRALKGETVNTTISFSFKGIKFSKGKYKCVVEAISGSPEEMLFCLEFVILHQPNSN
Description: MD-2 binding to solid phase phospholipids. Conditions: for binding to MD-2: 1.25 nmole lipid per well, MD-2 1 μg/ml. The protocol: FIG. 16. MD-2 preferentially binds POPG.
The wells were then washed with 20 mM Tris buffer (pH 7.4) containing 0.15 M NaCl and 5 mM CaCl2 or 2 mM EGTA (buffer B), and 1 μg/ml anti-human CD14 IgG or anti-His antibody (50 μl/well) in buffer A was added and incubated overnight at 4° C., followed by the incubation with horseradish peroxidase (HRP)-labeled anti-mouse IgG (1:5000) for 1 h. After washing the wells with buffer B, the peroxidase reaction was finally performed using o-phenylenediamine as a substrate. The binding of CD14 or MD-2 to phospholipids was detected by measuring absorbance at 490 nm.

Assay [4] has as its system differentiated U937 cells. Description: LPS-induced TNF-α production by U937 cells in serum free media (without LBP). Type of assay: cell-based, human. Conditions: for LPS-induced synthesis and secretion of TNF-α in serum free media: LPS 10 ng/ml, 6 h, without LBP; for potency as LPS antagonist without LBP: serum free media compared with serum. How it is done: U937 cells were induced to differentiate by incubation in medium containing 10 nM of phorbol myristate acetate (PMA) for 48 h. The cells (1.3×10^5/well) were placed on 96-well plates and further incubated in the absence of PMA for 24 h in RPMI 1640 medium containing 10% BGS. After the cells were washed with PBS, the indicated concentration of phospholipids was preincubated with the cells in RPMI without serum for 30 min before adding LPS. The indicated amount of LPS was then added into the well and incubated for 6 h at 37° C. with 5% CO2. The culture medium was collected and assayed for TNF-α secretion using an ELISA kit (Invitrogen).

The record followed here is patent publication US10532066B2, “Surfactant lipids, compositions thereof, and uses thereof” (National Jewish Health, priority 2007, dated 2020).

Consider `CCCCCCCCCCCCCCCC(=O)OCC(COP(=O)(O)OCC(O)CO)OC(=O)CCCCCCCCCCCCCCC` (centres unmarked) [DPPG, dipalmitoyl-phosphatidylglycerol, reference compound], for which the “LPS-induced TNF-α production” value in assay [1] was “failed to antagonize”. Besides, the “LPS-induced NO production” value in assay [2] is listed as “failed to antagonize”. In assay [3], the “binding to MD-2” value is on record as “Neither saturated nor unsaturated PC, nor unsaturated PI, nor DPPG showed any significant binding”.
With `CCCCCCCCCCCCCC(=O)OCC(COP(=O)(O)OCC(O)CO)OC(=O)CCCCCCCCCCCCC` (centres unmarked) [DMPG, dimyristoyl-phosphatidylglycerol], in assay [1], the “LPS-induced TNF-α production” value was “as potent as POPG”. Also, the “LPS-induced NO production” value in assay [2] is “as potent as POPG”. Moreover, in assay [4], the “LPS-induced synthesis and secretion of TNF-α in serum free media” value is “still inhibited”; the “potency as LPS antagonist without LBP” value was “continues to remain high”. Also, in assay [3] (POPG = 100%), the “binding to MD-2 relative to the POPG value” was around 50%.
As to `CCCCCCCCCCCCCCCC(=O)OC[C@H](COP(=O)([O-])OCC[N+](C)(C)C)OC(=O)CCCCCCCCCCCCCCC` [DPPC, dipalmitoyl-phosphatidylcholine, reference compound], in assay [1], the “LPS-induced TNF-α production” value is given as “no significant effect”. In assay [2], the “LPS-induced NO production” value was “no significant effect”.
Take phosphatidylinositol [PI]: the “LPS-induced TNF-α production” value in assay [1] was “significantly attenuated”. In addition, the “LPS-induced NO production” value in assay [2] is given as “significantly attenuated”. For the same molecule, in assay [4], the “LPS-induced synthesis and secretion of TNF-α in serum free media” value is listed as “still inhibited”; the “potency as LPS antagonist without LBP” value was “modestly diminished”. In assay [3], the “binding to MD-2” value is “Neither saturated nor unsaturated PC, nor unsaturated PI, nor DPPG showed any significant binding”.
`CCCCCCCC/C=C\CCCCCCCC(=O)O[C@H](COC(=O)CCCCCCCCCCCCCCC)COP(=O)(O)OCC(O)CO` (some centres unmarked) [POPG, palmitoyl-oleoyl-phosphatidylglycerol]: the “LPS-induced TNF-α production” value in assay [1] was “significantly attenuated”. Moreover, the “LPS-induced NO production” value in assay [2] was “significantly attenuated”. Also, in assay [4], the “LPS-induced synthesis and secretion of TNF-α in serum free media” value was “still inhibited”; the “potency as LPS antagonist without LBP” value is reported as “modestly diminished”. Further, the “binding to MD-2” value in assay [3] is “strongly bound”.
